Measurements reported in PubChem BioAssay AID330 (DTP/NCI, 2004).
“And” between values parts separate entries of the source, which are not always exact repeats. Equal entries are not always repeated. Inconclusive results and toxic doses are left out.

System: P388 leukemia ip, CD2F1 mice, survival T/C
Test: NCI In Vivo Anticancer Drug Screen. Data for tumor model P388 Leukemia (intraperitoneal) in CD2F1 (CDF1) mice
Settings: endpoint: median survival time, higher = longer survival
Procedure, shortened: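 Mice carrying the transplanted tumor received test compound or vehicle. Survival was recorded in each group, and the value is the treated-group measurement divided by that of the vehicle-treated control group.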

[1] = dose: 50.0 mg/kg/injection, schedule: Q01DX009 (ip), vehicle: saline with Tween-80

**Q.** `CC1(C)NC(=O)c2cccnc2S1` was tested. Which T/C (dose: 60.0 mg/kg/injection, schedule: Q01DX005 (ip), vehicle: saline with Tween-80) did it give?
**A.** The T/C was 89 % of control.

**Q.** And the T/C (dose: 120.0 mg/kg/injection, schedule: Q01DX005 (ip), vehicle: saline with Tween-80)?
**A.** The T/C was 97 % of control.

**Q.** And the T/C (dose: 240.0 mg/kg/injection, schedule: Q01DX005 (ip), vehicle: saline with Tween-80)?
**A.** The T/C was 99 % of control.

**Q.** Which T/C (dose: 25.0 mg/kg/injection, schedule: Q01DX009 (ip), vehicle: Klucel (hydroxypropylcellulose) (HPC)) does the source give for `c1ccc2sc(SNC3CCCCC3)nc2c1` here?
**A.** Its T/C is 103 % of control.

**Q.** What about the T/C (dose: 25.0 mg/kg/injection, schedule: Q04DX002 (ip), vehicle: Klucel (hydroxypropylcellulose) (HPC)) of the same compound?
**A.** The T/C was 94 % of control.

**Q.** What about the T/C (dose: 50.0 mg/kg/injection, schedule: Q01DX009 (ip), vehicle: Klucel (hydroxypropylcellulose) (HPC)) of the same compound?
**A.** Its T/C is 104 % of control.

**Q.** What about the T/C (dose: 50.0 mg/kg/injection, schedule: Q04DX002 (ip), vehicle: Klucel (hydroxypropylcellulose) (HPC)) of the same compound?
**A.** The T/C was 95 % of control.

**Q.** What about the T/C (dose: 100.0 mg/kg/injection, schedule: Q01DX009 (ip), vehicle: Klucel (hydroxypropylcellulose) (HPC)) of the same compound?
**A.** Its T/C is 100 % of control.

**Q.** What about the T/C (dose: 100.0 mg/kg/injection, schedule: Q04DX002 (ip), vehicle: Klucel (hydroxypropylcellulose) (HPC)) of the same compound?
**A.** The T/C was 94 % of control.

**Q.** What about the T/C (dose: 100.0 mg/kg/injection, schedule: Q04DX002 (ip), vehicle: saline) of the same compound?
**A.** The T/C was 101 % of control.

**Q.** And the T/C (dose: 200.0 mg/kg/injection, schedule: Q01DX009 (ip), vehicle: Klucel (hydroxypropylcellulose) (HPC))?
**A.** Its T/C is 101 % of control.

**Q.** What about the T/C (dose: 200.0 mg/kg/injection, schedule: Q04DX002 (ip), vehicle: saline) of the same compound?
**A.** The T/C was 109 % of control.

**Q.** What about the T/C (dose: 400.0 mg/kg/injection, schedule: Q04DX002 (ip), vehicle: saline) of the same compound?
**A.** The T/C was 113 % of control.

**Q.** With `NC(=O)SCC(=O)Nc1ccc2ncccc2c1` as the compound, how does the T/C (dose: 100.0 mg/kg/injection, schedule: Q01DX009 (ip), vehicle: saline sonified) read?
**A.** Its T/C is 100 % of control.

**Q.** What about the T/C (dose: 100.0 mg/kg/injection, schedule: Q04DX003 (ip), vehicle: saline sonified) of the same compound?
**A.** The T/C was 100 % of control.

**Q.** And the T/C (dose: 200.0 mg/kg/injection, schedule: Q01DX009 (ip), vehicle: saline sonified)?
**A.** The T/C was 113 % of control.

**Q.** What about the T/C (dose: 200.0 mg/kg/injection, schedule: Q04DX003 (ip), vehicle: saline sonified) of the same compound?
**A.** Its T/C is 100 % of control.

**Q.** What about the T/C (dose: 400.0 mg/kg/injection, schedule: Q01DX009 (ip), vehicle: saline sonified) of the same compound?
**A.** The T/C was 90 % of control.

**Q.** What about the T/C (dose: 400.0 mg/kg/injection, schedule: Q04DX003 (ip), vehicle: saline sonified) of the same compound?
**A.** Its T/C is 104 % of control.

**Q.** Which results are given for `Cc1ccc(OP(=O)(Oc2ccc(C)cc2)Oc2ccc(C)cc2)cc1.Cc1ccc(OP(=O)(Oc2ccc(C)cc2)Oc2ccc(C)cc2)cc1.Cc1ccc(OP(=O)(Oc2ccc(C)cc2)Oc2ccc(C)cc2)cc1.Cc1ccc(OP(=O)(Oc2ccc(C)cc2)Oc2ccc(C)cc2)cc1.[Cr+3].[O-][Cl+3]([O-])([O-])O`?
**A.** T/C (dose: 100.0 mg/kg/injection, schedule: Q01DX001 (ip), vehicle: Klucel (hydroxypropylcellulose) (HPC)): 100 % of control; T/C (dose: 200.0 mg/kg/injection, schedule: Q01DX001 (ip), vehicle: Klucel (hydroxypropylcellulose) (HPC)): 96 % of control; T/C (dose: 400.0 mg/kg/injection, schedule: Q01DX001 (ip), vehicle: Klucel (hydroxypropylcellulose) (HPC)): 89 % of control

**Q.** How did the T/C (dose: 100.0 mg/kg/injection, schedule: Q04DX003 (ip), vehicle: saline) turn out when `O=C(CCS(=O)(=O)CCC(=O)C(c1ccccc1)c1ccccc1)C(c1ccccc1)c1ccccc1` was run?
**A.** Its T/C is 97 % of control.

**Q.** What about the T/C (dose: 200.0 mg/kg/injection, schedule: Q04DX003 (ip), vehicle: saline) of the same compound?
**A.** The T/C was 94 % of control.

**Q.** And the T/C (dose: 400.0 mg/kg/injection, schedule: Q04DX003 (ip), vehicle: saline)?
**A.** The T/C was 90 % of control.

**Q.** Which results are given for `CCC(C(=O)O)C(=O)O.[NH-]CC1CCCC[N-]1.[Pt+2]`?
**A.** T/C (dose: 25.0 mg/kg/injection, schedule: Q01DX005 (ip), vehicle: saline): 161 % of control; T/C (dose: 25.0 mg/kg/injection, schedule: Q01DX009 (ip), vehicle: saline): 161 % of control; T/C (dose: 50.0 mg/kg/injection, schedule: Q01DX005 (ip), vehicle: saline): 217 % of control; T/C [1]: 202 % of control; T/C (dose: 50.0 mg/kg/injection, schedule: Q01DX009 (ip), vehicle: saline): 189 % of control; T/C (dose: 100.0 mg/kg/injection, schedule: Q01DX005 (ip), vehicle: saline): 243 % of control and 267 % of control; T/C (dose: 100.0 mg/kg/injection, schedule: Q01DX009 (ip), vehicle: saline): 252 % of control; T/C (dose: 125.0 mg/kg/injection, schedule: Q01DX001 (ip), vehicle: saline): 161 % of control; T/C (dose: 250.0 mg/kg/injection, schedule: Q01DX001 (ip), vehicle: saline): 191 % of control; T/C (dose: 500.0 mg/kg/injection, schedule: Q01DX001 (ip), vehicle: saline): 173 % of control and 198 % of control

**Q.** For `COC(=O)C12C(=O)C(C(=O)OC)(C(c3ccccc3)=C1c1ccccc1)C1OC(=O)OC12` (configuration not stated), which T/C [1] is on record?
**A.** Its T/C is 91 % of control.

**Q.** What about the T/C (dose: 100.0 mg/kg/injection, schedule: Q01DX009 (ip), vehicle: saline with Tween-80) of the same compound?
**A.** The T/C was 86 % of control.
